From the supplement of paper PMC10307832

compound: CC(C)C[C@H](NC(=O)[C@H](CCc1ccccc1)NC(=O)CN1CCOCC1)C(=O)N[C@@H](Cc1ccccc1)C(=O)N[C@@H](CC(C)C)C(=O)[C@@]1(C)CO1 [Carfilzomib] + Nc1ncn([C@H]2C[C@H](O)[C@@H](CO)O2)c(=O)n1 [Decitabine] (partner 2 µM); test: relative viability (nuclei count vs DMSO), 5 days (fraction); higher = more cells survive; details: first compound 0.001 µM
Procedure, shortened: (§1)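 Dosing by pin tool came one day after lung cancer cell lines were seeded in 1536-well plates, using either one drug or a fixed anchor-drug dose plus five library-drug doses (not always all listed) in √10 steps. After 5 days, nuclei were counted on 4× images. Relative viability is treated-well nuclei count divided by vehicle-well nuclei count, and values are medians of duplicate plates.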

Cell Line | relative viability
EMC-BAC-2 | 1
EPLC-272H | 0.353
H3255 | 0.645
HARA | 0.669
HCC-15 | 0.606
HCC-44 | 0.939
HCC-78 | 0.622
HCC-366 | 0.32
HCC-827 | 0.287
HOP-62 | 0.25
LC-2-ad | 0.878
LCLC-97TM1 | 0.234
LCLC-103H | 0.722
LK-2 | 0.276
NCI-H358 | 0.208
NCI-H522 | 0.582
NCI-H596 | 0.904
NCI-H650 | 0.342
NCI-H661 | 0.583
NCI-H1648 | 0.447
NCI-H2342 | 0.711

same assay, conditions: first compound 0.003162 µM

Cell Line | relative viability
201T | 0.901
A549 | 0.292
A-427 | 0.565
ABC-1 | 1.34
BEN | 0.861
COR-L23 | 0.443
COR-L 105 | 0.752
ChaGo-K-1 | 0.55
EKVX | 0.36
EMC-BAC-2 | 1.02
EPLC-272H | 0.391
H3255 | 0.704
HARA | 0.747
HCC-15 | 0.725
HCC-44 | 0.893
HCC-78 | 0.766

Cell Line | relative viability
HCC-366 | 0.412
HCC-827 | 0.371
HOP-62 | 0.207
LC-2-ad | 0.811
LCLC-97TM1 | 0.283
LCLC-103H | 0.732
LK-2 | 0.369
NCI-H358 | 0.24
NCI-H522 | 0.631
NCI-H596 | 0.999
NCI-H650 | 0.314
NCI-H661 | 0.585
NCI-H1648 | 0.495
NCI-H2342 | 0.78
SW 900 | 0.5

same assay, conditions: first compound 0.01 µM

Cell Line | relative viability
201T | 0.798
A549 | 0.109
A-427 | 0.591
ABC-1 | 0.539
BEN | 0.643
COR-L23 | 0.386
COR-L 105 | 0.751
ChaGo-K-1 | 0.494
EKVX | 0.335
EMC-BAC-2 | 0.954
EPLC-272H | 0.379
H3255 | 0.684
HARA | 0.704
HCC-15 | 0.637
HCC-44 | 0.917
HCC-78 | 0.672

Cell Line | relative viability
HCC-366 | 0.352
HCC-827 | 0.31
HOP-62 | 0.249
LC-2-ad | 0.75
LCLC-97TM1 | 0.226
LCLC-103H | 0.793
LK-2 | 0.193
NCI-H358 | 0.181
NCI-H522 | 0.615
NCI-H596 | 1.03
NCI-H650 | 0.316
NCI-H661 | 0.568
NCI-H1648 | 0.474
NCI-H2342 | 0.782
SW 900 | 0.344

same assay, conditions: first compound 0.03162 µM

Cell Line | relative viability
201T | 0.873
A549 | 0.254
A-427 | 0.527
ABC-1 | 0.274
BEN | 0.577
COR-L23 | 0.0979
COR-L 105 | 0.466
ChaGo-K-1 | 0.322
EMC-BAC-2 | 0.911
EPLC-272H | 0.174
HARA | 0.192
HCC-15 | 0.424
HCC-44 | 0.973
HCC-78 | 0.554
HCC-366 | 0.447
HCC-827 | 0.269
HOP-62 | 0.182
LC-2-ad | 0.861
LCLC-97TM1 | 0.115
LCLC-103H | 0.728
LK-2 | 0.119
NCI-H358 | 0.0811
NCI-H522 | 0.584
NCI-H596 | 1.16
NCI-H650 | 0.31
NCI-H661 | 0.598
NCI-H1648 | 0.404
NCI-H2342 | 0.887
SW 900 | 0.197

same assay, conditions: first compound 0.1 µM

Cell Line | relative viability
201T | 0.795
A549 | 0.0302
A-427 | 0.178
ABC-1 | 0.285
BEN | 0.26
COR-L23 | 0.0901
COR-L 105 | 0.34
ChaGo-K-1 | 0.174
EKVX | 0.128
EMC-BAC-2 | 0.296
EPLC-272H | 0.0719
H3255 | 0.185
HARA | 0.119
HCC-15 | 0.127
HCC-44 | 0.639
HCC-78 | 0.302

Cell Line | relative viability
HCC-366 | 0.086
HCC-827 | 0.133
HOP-62 | 0.0817
LC-2-ad | 0.557
LCLC-97TM1 | 0.0656
LCLC-103H | 0.387
LK-2 | 0.108
NCI-H358 | 0.0784
NCI-H522 | 0.353
NCI-H596 | 0.308
NCI-H650 | 0.139
NCI-H661 | 0.394
NCI-H1648 | 0.255
NCI-H2342 | 0.585
SW 900 | 0.22

compound: C[C@@H](Oc1cc(-c2cnn(C3CCNCC3)c2)cnc1N)c1c(Cl)ccc(F)c1Cl [Crizotinib] + N=C(N)NC(=N)NCCc1ccccc1 [Phenformin] (partner 250 µM); test: as above; details: first compound 0.01 µM
Procedure, shortened: as §1

Cell Line | relative viability
201T | 0.42
A549 | 0.165
A-427 | 0.303
BEN | 0.259
CAL-12T | 0.503
COR-L23 | 0.376
COR-L 105 | 0.384
ChaGo-K-1 | 0.457
EKVX | 0.209
